By IC50 is commonly meant the point on the concentration scale where inhibition reaches its midpoint. Lower therefore signals greater potency.

Sequence of KIF18A (Q8NI77 whole entry): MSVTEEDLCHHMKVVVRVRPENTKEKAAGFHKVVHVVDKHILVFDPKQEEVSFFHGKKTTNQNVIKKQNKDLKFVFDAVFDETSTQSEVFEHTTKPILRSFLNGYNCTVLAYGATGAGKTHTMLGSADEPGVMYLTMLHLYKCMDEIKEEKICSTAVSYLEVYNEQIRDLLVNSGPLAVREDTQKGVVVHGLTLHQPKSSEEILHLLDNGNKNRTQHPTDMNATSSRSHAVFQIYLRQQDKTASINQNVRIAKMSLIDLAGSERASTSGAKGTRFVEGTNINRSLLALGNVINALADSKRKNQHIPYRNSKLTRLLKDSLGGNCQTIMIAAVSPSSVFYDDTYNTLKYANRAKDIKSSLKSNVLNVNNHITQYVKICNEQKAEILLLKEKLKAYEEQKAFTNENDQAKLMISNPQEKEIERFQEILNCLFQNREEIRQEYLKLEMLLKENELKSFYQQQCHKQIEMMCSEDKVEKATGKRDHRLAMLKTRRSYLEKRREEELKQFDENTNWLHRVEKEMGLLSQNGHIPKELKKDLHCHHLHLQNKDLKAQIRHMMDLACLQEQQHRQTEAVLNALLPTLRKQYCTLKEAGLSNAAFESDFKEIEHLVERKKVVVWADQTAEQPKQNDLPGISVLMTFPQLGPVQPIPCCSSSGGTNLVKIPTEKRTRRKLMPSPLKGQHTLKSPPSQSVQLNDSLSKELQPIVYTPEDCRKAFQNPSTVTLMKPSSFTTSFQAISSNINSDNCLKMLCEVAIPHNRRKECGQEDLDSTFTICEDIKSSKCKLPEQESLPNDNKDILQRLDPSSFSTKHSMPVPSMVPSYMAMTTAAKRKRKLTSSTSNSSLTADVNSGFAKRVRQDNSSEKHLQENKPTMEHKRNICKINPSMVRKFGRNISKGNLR
Sequence of KIF18A (P02550 whole entry partner): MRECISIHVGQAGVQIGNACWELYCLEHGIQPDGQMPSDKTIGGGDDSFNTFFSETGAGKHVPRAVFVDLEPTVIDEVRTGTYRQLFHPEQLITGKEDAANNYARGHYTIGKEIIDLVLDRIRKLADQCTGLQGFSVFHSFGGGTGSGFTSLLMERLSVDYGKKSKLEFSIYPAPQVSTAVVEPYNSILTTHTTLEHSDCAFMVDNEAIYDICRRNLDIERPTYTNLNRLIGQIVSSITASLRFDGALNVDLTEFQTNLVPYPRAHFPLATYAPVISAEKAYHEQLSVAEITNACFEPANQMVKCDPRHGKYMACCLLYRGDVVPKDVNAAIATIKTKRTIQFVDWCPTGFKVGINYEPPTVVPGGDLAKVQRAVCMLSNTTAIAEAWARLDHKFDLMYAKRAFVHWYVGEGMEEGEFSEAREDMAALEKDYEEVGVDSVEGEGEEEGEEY
Sequence of KIF18A (P02554 whole entry partner): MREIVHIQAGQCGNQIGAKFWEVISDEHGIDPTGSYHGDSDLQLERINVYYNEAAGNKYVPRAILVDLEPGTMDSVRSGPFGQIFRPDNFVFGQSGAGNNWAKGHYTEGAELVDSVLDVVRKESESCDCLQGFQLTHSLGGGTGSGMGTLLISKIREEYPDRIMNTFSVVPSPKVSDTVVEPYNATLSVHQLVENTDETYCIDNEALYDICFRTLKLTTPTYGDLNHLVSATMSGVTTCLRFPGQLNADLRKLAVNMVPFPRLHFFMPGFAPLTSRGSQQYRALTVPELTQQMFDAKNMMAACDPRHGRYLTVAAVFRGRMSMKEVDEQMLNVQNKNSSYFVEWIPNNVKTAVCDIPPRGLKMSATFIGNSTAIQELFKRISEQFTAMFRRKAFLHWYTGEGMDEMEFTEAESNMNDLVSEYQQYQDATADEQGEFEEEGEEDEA

For one test, the system named is OVCAR-3 cells. Briefly: OVCAR-3 cell proliferation (Cell Titer-Glo, 10 days). In kind it is cell-based, human.
Details: not given
On the procedure:
The inhibitory effect on the KIF18A target by the compounds of the present disclosure was evaluated by testing the inhibitory effect on proliferation of OVCAR-3 cells by the compounds of the present disclosure.
The following method was used to determine the effect of the compounds of the present disclosure on the proliferation of human ovarian cancer cells Ovcar-3 (HTB-161, ATCC). Cells were cultured in RPMI-1640 complete medium containing 20% fetal bovine serum, 0.01 mg/mL bovine insulin, 100 U penicillin, and 100 μg/mL streptomycin. The Promega kit Cell Titer-Glo (Cat. No. G7572) was used in this method for test.
For specific steps, reference was made to the kit instructions, and the procedure was outlined below: Test compounds were dissolved in DMSO to prepare a 10 mM stock solution, which was diluted at the predetermined test concentrations, and the test compounds at different concentrations were added to a 384-well cell test plate using ECHO. In the plate pre-added with the test compounds, 400 OVCAR-3 cells in the logarithmic growth phase were seeded per well, ensuring the final concentration of the test compounds in the reaction system ranged between 0.12 nM and 10 μM. The co-culture was maintained in a cell culture incubator for 10 days. Before testing, the cell culture plate was equilibrated for 10 minutes at room temperature, 25 μL of Cell Titer-Glo was added to each well, and the mixture was shaken and mixed well and let stand for 5 minutes. The luminescence values for samples in various wells were read using a microplate reader in Luminescence mode.
The percentage of inhibition of cell proliferation by the test compound at each concentration was calculated by comparing with the values of the control group (0.1% DMSO). The IC50 values of the compounds were obtained by concentration-inhibition rate nonlinear regression analysis of the test compounds using GraphPad Prism 9.
Compound `CC1Cn2c(cc3c(NC(=O)c4ccc(NS(=O)(=O)CCO)cc4N4CCC5(CC4)CC5)cccc32)C(C)O1` (single isomer, unassigned) [Compound 312-P2B, N-(1,3-dimethyl-3,4-dihydro-1H-[1,4]oxazino[4,3-a]indol-9-yl)-4-((2-hydroxyethyl)sulfonamido)-2-(6-azaspiro[2.5]oct-6-yl)benzamide] showed an IC50 of 50 to 500 nM.
As to `[2H]C([2H])([2H])OC1c2cc3c(NC(=O)c4ccc(NS(=O)(=O)CCO)cc4N4CCC(=C(F)F)CC4)cccc3n2CCC1(F)F` (single isomer, unassigned) [Compound 386-P1, N-(8,8-difluoro-9-(methoxy-d3)-6,7,8,9-tetrahydropyridino[1,2-a]indol-1-yl)-2-(4-(difluoromethylene)piperidin-1-yl)-4-((2-hydroxyethyl)sulfonamido)benzamide], the IC50 lay within 500 to 5000 nM.

The same test, now with this note: Homo sapiens, OVCAR-3, 240 h.
With `CC1Cn2c(cc3c(NC(=O)c4ccc(NS(=O)(=O)CCO)cc4N4CCC5(CC4)CC5)cccc32)C(C)O1` (single isomer, unassigned) [Compound 312-P1, N-(1,3-dimethyl-3,4-dihydro-1H-[1,4]oxazino[4,3-a]indol-9-yl)-4-((2-hydroxyethyl)sulfonamido)-2-(6-azaspiro[2.5]oct-6-yl)benzamide], the IC50 was 50 to 500 nM.
Compound `[2H]C([2H])([2H])OC1c2cc3c(NC(=O)c4ccc(NS(=O)(=O)CCO)cc4N4CCC5(CC4)CC5)cccc3n2CCC1(F)F` (single isomer, unassigned) [Compound 385-P1, N-(8,8-difluoro-9-(methoxy-d3)-6,7,8,9-tetrahydropyridino[1,2-a]indol-1-yl)-4-((2-hydroxyethyl)sulfonamido)-2-(6-azaspiro[2.5]oct-6-yl)benzamide] returned a half-inhibitory concentration (IC50) of 50 to 500 nM.
The compound `COC1c2cc3c(NC(=O)c4ccc(NS(=O)(=O)CCO)cc4N4CCC(=C(F)F)CC4)ccc(C#N)c3n2CCC1(F)F` (stereo not drawn) [Compound 427, N-(4-cyano-8,8-difluoro-9-methoxy-6,7,8,9-tetrahydropyridino[1,2-a]indol-1-yl)-2-(4-(difluoromethylene)piperidin-1-yl)-4-((2-hydroxyethyl)sulfonamide)benzamide] showed a 50% inhibitory concentration (IC50) of 50 to 500 nM.
The same measure, in the same setting: for `CC1(C)Cn2c(cc3c(NC(=O)c4cnc(NS(=O)(=O)CCO)cc4N4CCC5(CC4)CC5)cccc32)CO1` [Example 454, N-(3,3-dimethyl-3,4-dihydro-1H-[1,4]oxazino[4,3-a]indol-9-yl)-6-(2-hydroxyethylsulfonamide)-4-(6-azaspiro[2.5]octan-6-yl)nicotinamide] the value was 50 to 500 nM; for `CC1(C)Cn2c(cc3c(NC(=O)c4ccc(NS(=O)(=O)CCO)cc4N4CCC(=C(F)F)CC4)ccc(Cl)c32)CO1` [Example 522, N-(6-chloro-3,3-dimethyl-3,4-dihydro-1H-[1,4]oxazino[4,3-a]indol-9-yl)-2-[4-(difluoromethylene)hexahydropyridin-1-yl]-4-{[(2-hydroxyethyl)sulfonamide]}benzamide], 50 to 500 nM.

For a further test, the target named is KIF18A (Homo sapiens (Human), UniProt Q8NI77). Description: KIF18A ATPase activity under tubulin stimulation (ADP-Glo assay). The conditions noted are these: KIF18A 30 nM, ATP 150 μM, pig microtubules. In kind it is biochemical. The protocol:
This experiment assesses the inhibitory effect of the compounds of the present disclosure on the KIF18A target according to the IC50 values by measuring the KIF18A ATPase activity under tubulin stimulation with the presence of the compounds.
• 1. Preparation of 30 mL of reaction buffer: • (1) 450 μL 1M Tris-HCl (pH=7.5)+300 μL 1M MgCl2+30 μL 10% Pluronic F-68 (ThermoFisher, 24040032-100 ml); • (2) adjusting pH to 7.5, and adding water to adjust the volume to 30 mL. • 2. Preparation of a 5 mg/mL pig microtubule (Microtubules; MT) (Cytoskeleton Inc, MT002) stock solution: • (1) 10 mL PM buffer=150 μL 1 M PIPES (pH 7.0)+20 μL 0.5 mM MgCl2+100 μL 2 mM Taxol (Cytoskeleton Inc, TXD01)+9730 μL water. • (2) MT ([…]): Adding 100 μL PM buffer to prepare a 5 mg/mL stock solution. Keeping the MT (Cytoskeleton Inc, MT002) at room temperature for 10-15 minutes, gently mixing and storing same at −80° C. • 3. Preparation of 2 mL of kinase buffer: 2 mL reaction buffer+1 μL 2 mM Taxol (Cytoskeleton Inc, TXD01)+12 μL 5 mg/mL MT (Cytoskeleton Inc, MT002). • 4. Preparation of 2×KIF18A (30 nM) (ChemPartner, CPB-P22-31645) working solution: 2.4 μL 10 μM KIF18A (ChemPartner, CPB-P22-31645)+800 μL 1× kinase buffer. • 5. Preparation of 2×ATP (150 μM) (Promega, G9101) working solution: 12 μL 10 mM ATP+800 μL 1× kinase buffer. • 6. 25 nL of compound was transferred to a 384-well plate using Echo650. • 7. 2.5 μL of 2×KIF18A from Step 4 (final concentration of 30 nM) was added to the 384-well plate and the plate was incubated at 25° C. for 15 minutes. • 8. 2.5 μL of 2×ATP from Step 5 (final concentration of 150 μM) was added to the 384-well plate and the plate was incubated at 25° C. for 15 minutes. • 9. 5 μL ADP-Glo™ Reagent (Promega, G9101) was added to the 384-well plate and the plate was incubated at 25° C. for 40 minutes. • 10. 10 μL of kinase detection reagent (Promega, G9101) was added to the 384-well plate and the plate was incubated at 25° C. for 40 minutes. • 11. Luminescence values were measured using the EnVision Xcite Multilabel Reader (PerkinElmer, 2105-0020).
In general terms: ADP-Glo first removes unused ATP, then detects ADP through luciferase.
For the compound `CC1Cn2c(cc3c(NC(=O)c4ccc(NS(=O)(=O)CCO)cc4N4CCC5(CC4)CC5)cccc32)C(C)O1` (single isomer, unassigned) [Compound 312-P1, N-(1,3-dimethyl-3,4-dihydro-1H-[1,4]oxazino[4,3-a]indol-9-yl)-4-((2-hydroxyethyl)sulfonamido)-2-(6-azaspiro[2.5]oct-6-yl)benzamide], the IC50 was in the range of 50 to 500 nM.
The compound `CC1Cn2c(cc3c(NC(=O)c4ccc(NS(=O)(=O)CCO)cc4N4CCC5(CC4)CC5)cccc32)C(C)O1` (single isomer, unassigned) [Compound 312-P2B, N-(1,3-dimethyl-3,4-dihydro-1H-[1,4]oxazino[4,3-a]indol-9-yl)-4-((2-hydroxyethyl)sulfonamido)-2-(6-azaspiro[2.5]oct-6-yl)benzamide] gave an IC50 of 50 to 500 nM.
Same read-out and setting: for `[2H]C([2H])([2H])OC1c2cc3c(NC(=O)c4ccc(NS(=O)(=O)CCO)cc4N4CCC(=C(F)F)CC4)cccc3n2CCC1(F)F` (single isomer, unassigned) [Compound 386-P1, N-(8,8-difluoro-9-(methoxy-d3)-6,7,8,9-tetrahydropyridino[1,2-a]indol-1-yl)-2-(4-(difluoromethylene)piperidin-1-yl)-4-((2-hydroxyethyl)sulfonamido)benzamide] the value was 500 to 5000 nM.
The same measure, in the same setting: then `O=C(Nc1ncnc2c1ccn2CC1CC1)c1ccc(NS(=O)(=O)CCO)cc1N1CCC2(CC1)CC2` [Example 34, N-(7-(cyclopropylmethyl)-7H-pyrrolo[2,3-d]pyrimidin-4-yl)-4-((2-hydroxyethyl)sulfonamido)-2-(6-azaspiro[2.5]octan-6-yl)benzamide], with 500 to 5000 nM.
With `Cc1cc(NC(=O)c2ccc(NS(=O)(=O)CCO)cc2N2CCC3(CC2)CC3)c2ccn(CC3CC3)c2n1` [Example 37, N-(1-(cyclopropylmethyl)-6-methyl-1H-pyrrolo[2,3-b]pyridin-4-yl)-4-((2-hydroxyethyl)sulfonamido)-2-(6-azaspiro[2.5]oct-6-yl)benzamide], the 50% inhibitory concentration (IC50) was in the range of 50 to 500 nM.
Same read-out and setting: then `O=C(Nc1cccc2c1ccn2CC1CC1)c1ccc(NS(=O)(=O)CCO)nc1N1CCC2(CC1)CC2` [Example 38, N-(1-(cyclopropylmethyl)-1H-indol-4-yl)-6-((2-hydroxyethyl)sulfonamido)-2-(6-azaspiro[2.5]oct-6-yl)nicotinamide], with 50 to 500 nM; and `CNc1cc(NS(=O)(=O)CCO)cc(N2CCC3(CC2)CC3)c1C(=O)Nc1cccc2c1ccn2CC1CC1` [Example 39], with 50 to 500 nM; and `CNc1cc(NS(=O)(=O)CCO)cc(N2CCC3(CC2)CC3)c1C(=O)Nc1ccnc2c1ccn2CC1CC1` [Example 40], with 50 to 500 nM.
The same measure, in the same setting: then `Nc1cc(NS(=O)(=O)CCO)cc(N2CCC3(CC2)CC3)c1C(=O)Nc1cccc2c1CCN2CC1CC1` [Example 42], with 50 to 500 nM.
Still for that read-out and setting: for `CC1(NS(=O)(=O)c2ccc(C(=O)Nc3cccc4c3ccn4CC3CC3)c(N3CCC4(CC3)CC4)c2)COC1` [Example 44, N-(1-(cyclopropylmethyl)-1H-indol-4-yl)-4-(N-(3-methyloxetan-3-yl)sulfamoyl)-2-(6-azaspiro[2.5]oct-6-yl)benzamide] the value was 50 to 500 nM.
Take `O=C(Nc1cccc(N2CCC(F)(F)CC2)c1)Nc1ccc(NS(=O)(=O)CCO)cc1N1CCC2(CC1)CC2` [Example 147, N-(4-(3-(3-(4,4-difluoropiperidin-1-yl)phenyl)urea)-3-(6-azaspiro[2.5]octan-6-yl)phenyl)-2-hydroxyethane-1-sulfonamide]: the concentration for half-maximal inhibition (IC50) is 500 to 5000 nM.
Same read-out and setting: then `O=C(Nc1ccc2c(c1)N(CC1CC1)CC2)Nc1ccc(NS(=O)(=O)CCO)cc1N1CCC2(CC1)CC2` [Example 150, N-(4-(3-(1-(cyclopropylmethyl)indolin-6-yl)urea)-3-(6-azaspiro[2.5]octan-6-yl)phenyl)-2-hydroxyethane-1-sulfonamide], with over 5000 nM.
Still for that read-out and setting: for `O=C(Nc1ccc2c(c1)CCN2CC1CC1)Nc1ccc(NS(=O)(=O)CCO)cc1N1CCC2(CC1)CC2` [Example 151, N-(4-(3-(1-(cyclopropylmethyl)indolin-5-yl)urea)-3-(6-azaspiro[2.5]octan-6-yl)phenyl)-2-hydroxyethane-1-sulfonamide] the value was over 5000 nM; for `CC(C)(C)Cn1ccc2c(NC(=O)c3ccc(NS(=O)(=O)CCO)cc3N3CCC4(CC3)CC4)cccc21` [Example 281, 4-((2-hydroxyethyl)sulfonamido)-N-(1-neopentyl-1H-indol-4-yl)-2-(6-azaspiro[2.5]octan-6-yl)benzamide], 500 to 5000 nM; for `O=C(Nc1cccc2c1ccn2CC1(C(F)(F)F)CC1)c1ccc(NS(=O)(=O)CCO)cc1N1CCC2(CC1)CC2` [Example 284], 500 to 5000 nM.
In turn, `CC1(Cn2ccc3c(NC(=O)c4ccc(NS(=O)(=O)CCO)cc4N4CCC5(CC4)CC5)cccc32)CC1` [Example 285, 4-((2-hydroxyethyl)sulfonamido)-N-(1-((1-methylcyclopropyl)methyl)-1H-indol-4-yl)-2-(6-azaspiro[2.5]oct-6-yl)benzamide] yielded a 50% inhibitory concentration (IC50) of 50 to 500 nM.
On the same count and under the same terms, for `O=C(Nc1nccc2c1cc1n2CCOC1)c1ccc(NS(=O)(=O)CCO)cc1N1CCC2(CC1)CC2` [Example 306, N-(3,4-dihydro-1H-pyridino[3′,4′:4,5]pyrrolo[2,1-c][1,4]oxazin-9-yl)-4-((2-hydroxyethyl)sulfonamido)-2-(6-azaspiro[2.5]oct-6-yl)benzamide] the value was over 5000 nM.
